Assay results from article PMC5716539, “The acute glucose lowering effect of specific GPR120 activation in mice is mainly driven by glucagon-like peptide 1” (PLoS ONE, 2017).

What was measured:
[1] = tested on: lean male mice; test: Oral glucose tolerance test (OGTT) in lean male mice; type: in vivo, mouse; details: for Glucose excursions following oral glucose administration: oral dosing, different doses, glucose 2 g/kg, vs vehicle; for Dose at which significantly improved glucose tolerance was observed: oral, OGTT lean male mice; for Calculated unbound effective concentration, Ce50: unbound concentration giving 50% decrease in blood glucose over time vs vehicle, turnover model
Protocol: OGTT tests were performed in lean male mice (body weight 27-32g), randomized on body weight, fasted for 16 hours. An oral glucose load (2 g/kg) was administered 30 min (AZ13581837, 7 and 18 mg/kg) or 60 min (Metabolex-36, 10, 30 and 100 mg/kg) after oral dosing with the GPR120 agonists and blood glucose was measured at -30, 0, 10, 25, 40, 60 and 90 min post glucose administration. The specificity of Metabolex-36 was examined in male GPR120 null mice. The administration time for the GPR120 agonists was optimized depending on the pharmacokinetic profile of each compound, in order to maximize the plasma exposure of the compounds during the experiments.
For OGTT a turnover model with a log-linear drug function was used to model the glucose lowering effect determined as the effective concentration resulting in a 50% decrease in blood glucose over time (Ce50) compared to vehicle. All analyses were performed using Phoenix WinNonlin 6.4 (Certara, Princeton, NJ, USA). The area under the glucose excursion curve was calculated and used for statistical evaluation.

[2] = biological target: T1, mouse GPR40 (Mus musculus, UniProt Q76JU9); test: Calcium mobilization assay in HEK293-mGPR40 cells; type: cell-based
T1 construct: expressed in transfected cells
Protocol: (§1) CHO-hGPR120 and CHO cells were cultured in DMEM/F-12 (Invitrogen) with 10% FBS (Sigma) and HEK293-mGPR40 in DMEM (Invitrogen) supplemented with 10% FBS in 384-well poly-D-Lysin coated microplates (Greiner) at 37°C, 95% humidity and 5% CO2. After 19 hours cell media was replaced with Calcium4 dye (Molecular Devices) in HBSS (Invitrogen), 20 mM HEPES (Invitrogen), pH 7.4 and 1.25 mM Probenecid (Sigma). After 1 hour at room temperature agonists were added and calcium mobilization was detected as change in fluorescence (λex = 488 and λem = 540 nm) using a FLIPR^TETRA (Molecular Devices).

[3] = biological target: T2, human GPR120 (Homo sapiens, UniProt Q5NUL3); test: DMR (dynamic mass redistribution) assay in CHO-hGPR120 cells; type: cell-based; details: for DMR response after Gαs inhibition: CHO-hGPR120 cells treated with CTX; for DMR response after Gαi inhibition: CHO-hGPR120 cells treated with PTX; for DMR response after Gαq inhibition: CHO-hGPR120 cells treated with QIC; for EC50: mean ± SEM
T2 construct: expressed in transfected cells
T2 sequence (Q5NUL3 1-361): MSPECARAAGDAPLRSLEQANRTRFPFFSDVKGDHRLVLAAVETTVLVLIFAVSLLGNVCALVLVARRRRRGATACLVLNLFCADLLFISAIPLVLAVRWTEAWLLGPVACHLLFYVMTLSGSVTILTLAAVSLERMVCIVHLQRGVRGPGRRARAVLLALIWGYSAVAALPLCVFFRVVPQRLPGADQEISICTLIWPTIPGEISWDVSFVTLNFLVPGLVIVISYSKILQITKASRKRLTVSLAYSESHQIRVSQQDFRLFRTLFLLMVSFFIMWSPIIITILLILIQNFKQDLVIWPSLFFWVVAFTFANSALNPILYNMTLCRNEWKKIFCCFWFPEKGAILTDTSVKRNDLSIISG

[4] = tested on: islets from GPR120 null mice; test: cAMP production in dispersed islet cells from GPR120 null mice; type: cell-based, mouse; details: 10 μM agonist
Protocol: Mouse islets were isolated from pancreas by collagenase digestion, handpicked under microscope following multiple washing steps and dispersed to single cells using TrypLE Express (Gibco). The dispersed islet cells (20 000 cells/well) were incubated with the GPR120 agonists for 30 min in 96-well black plates (Corning) at 37°C in Krebs ringer phosphate Hepes buffer, pH 7.4, with 11 mM Glucose, 0.1% BSA and 0.5 mM 3-isobutyl-1-methylxanthine followed by addition of d2-labeled cAMP and anti-cAMP Cryptate in conjugation and lysis buffer (Cisbio). Produced cAMP was detected with homogenous time resolved fluorescence (HTRF) (λex = 340 nm, λem = 665 and 615 nm) using a Pherastar (BMG Labtech).

[5] = Pharmacokinetic properties; type: in vivo, mice; details: insufficient for chronic treatment
[6] = tested on: control CHO cells; test: Calcium mobilization assay in control CHO cells; type: cell-based, Chinese hamster
Protocol: as §1

[7] = biological target: T2, human GPR120; test: Calcium mobilization assay in CHO-hGPR120 cells; type: cell-based; details: for Calcium mobilization after Gαq inhibition: CHO-hGPR120 cells pre-treated with 1 μM QIC; for EC50: CHO-hGPR120 cells, mean ± SEM
Protocol: as §1

[8] = tested on: lean female mice; test: Intravenous glucose tolerance test (IVGTT) in lean female mice; type: in vivo, mouse; details: for Basal blood glucose: 4-hour fasted female mice, oral Metabolex-36 100 mg/kg or AZ13581837 35 mg/kg, vehicle 7.8±0.2 mM; for Acute insulin response (AIR): vs controls; for Acute insulin response (AIR) / Glucose elimination between 1 and 20 min / Time after iv glucose bolus up to which insulin levels were significantly elevated: Metabolex-36 100 mg/kg; for Acute insulin response (AIR) / Glucose elimination between 1 and 20 min: AZ13581837 35 mg/kg oral; for Time after iv glucose bolus up to which insulin levels were significantly elevated: oral pre-administration, AZ13581837 35 mg/kg
Protocol: Lean female mice (body weight 20–25 g), were randomized on body weight and fasted 4 hours prior to the IVGTT. Metabolex-36 (100 mg/kg) was administered orally 60 min and AZ13581837 (35mg/kg) 30 min before the IVGTT ([…]). Control mice were given vehicle (0.5% HPMC, 0.1% Tween-80) at corresponding time points. The specificity of AZ13581837 was examined in IVGTT in GPR120 null mice. GPR120 agonist doses were selected to reach plasma levels of at least 10 times over the in vitro EC50 value to achieve maximal activation of GPR120 (S2 Appendix). Thirty minutes prior to the glucose load, the mice were anaesthetised (20 mg/kg fluanisone/0.8 mg/kg fentanyl (Hypnorm®, Janssen, Beerse, Belgium) and 10 mg/kg midazolam (Dormicum®, Hoffman-LaRoche, Basel, Switzerland)) to allow for rapid blood sampling. The mice were kept at a heating pad to maintain body temperature.
In separate experiments, mice were pretreated with the GLP-1 receptor antagonist exendin 9–39 (30 nmol/kg, Bachem; intraperitoneally) alone or in combination with the GPR120 agonists, 15 min prior to the IVGTT. Insulin and glucose were measured 0, 1, 5, 10, 20 and 40 min after intravenous (iv) glucose administration. In separate groups of mice total GLP-1 levels were measured 60 min after oral administration of Metabolex-36 or 30 min after AZ13581837 and in corresponding vehicle (0.5% HPMC, 0.1% Tween-80) dosed mice. Blood samples were collected in EDTA coated tubes, centrifuged at 10000xg for 4 min, and plasma was separated and stored frozen until analyzed.
In the IVGTT, the acute insulin response (AIR) was calculated as the mean of suprabasal 1 and 5 min values, and the glucose elimination was quantified using the glucose elimination constant (KG) calculated as the slope of the logarithmic transformation of circulating glucose between 1 and 20 min after the glucose bolus. Multiple comparisons between the different groups were performed by one-way ANOVA. Tukey’s or Bonferroni’s post hoc test were used to calculate statistical differences between the groups. Significant statistical difference was considered at p<0.05. Data are presented as mean ± SEM.

[9] = exendin 9–39 30 nmol/kg i.p. 15 min prior to IVGTT

T1 sequence (Q76JU9 whole entry): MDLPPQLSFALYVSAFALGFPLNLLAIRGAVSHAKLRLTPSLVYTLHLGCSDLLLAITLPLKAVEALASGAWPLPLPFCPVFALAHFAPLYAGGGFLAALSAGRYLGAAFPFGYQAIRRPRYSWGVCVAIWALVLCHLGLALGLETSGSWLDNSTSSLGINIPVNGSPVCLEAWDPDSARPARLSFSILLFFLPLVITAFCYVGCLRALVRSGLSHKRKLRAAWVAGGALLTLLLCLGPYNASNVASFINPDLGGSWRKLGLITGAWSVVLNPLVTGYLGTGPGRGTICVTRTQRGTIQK

Compound	Glucose excursions following oral glucose administration [1]	Dose at which significantly improved glucose tolerance was observed [1]	Calculated unbound effective concentration, Ce50 [1]	Activation of mouse GPR40 in calcium mobilization assay [2]	DMR response after Gαs inhibition [3]	DMR response after Gαi inhibition [3]	DMR response after Gαq inhibition [3]	EC50 ([3]; CHO-hGPR120 cells)	cAMP production in islets from GPR120 null mice [4]	Pharmacokinetic properties (half-life) [5]	Calcium response in control CHO cells [6]	Calcium mobilization after Gαq inhibition [7]	EC50 [7]	Basal blood glucose [8]	Acute insulin response (AIR) ([8]; IVGTT)	Glucose elimination between 1 and 20 min ([8]; IVGTT)	Agonist-induced increase in insulin secretion after co-administration with exendin 9–39 [8, 9]	Time after iv glucose bolus up to which insulin levels were significantly elevated [8]	further results
3-(3,5-difluoro-4-((3-methyl-1-phenyl-1H-pyrazol-5-yl)methoxy)phenyl)-2-methylpropanoic acid [Metabolex-36]	concentration dependent reduction	30 mg/kg	0.6 µM	did not activate	partly blocked	did not result in any significant decrease	only partly reduced	570 ± 150 nM	no effect	short half-life	no response	completely abolished	1800 ± 190 nM	6.9 ± 0.2 mM	significant increase	increased the glucose elimination	abolished	up to 5 minutes	Acute insulin response when given together with exendin 9–39 [8, 9]: reduced to vehicle levels; Glucose elimination when given together with exendin 9–39 [8, 9]: reduced to vehicle levels; Glucose lowering effect in combination with exendin 9–39 [8, 9]: abolished
C#Cc1cc(Oc2cccnc2)cc(N2Cc3ccccc3S2(=O)=O)c1 [AZ13581837, 2-(3-ethynyl-5-(3-pyridyloxy)phenyl)-3H-1,2-benzothiazole 1,1-dioxide]	concentration dependent reduction	18 mg/kg	0.02 µM	did not activate	partly blocked	did not result in any significant decrease	only partly reduced	5.2 ± 0.6 nM	no effect	short half-life	no response	completely abolished	120 ± 20 nM	7.1 ± 0.3 mM	significant increase	increased the glucose elimination	completely abolished	up to 10 minutes	Potency relative to Metabolex-36 in DMR response ([3]; CHO-hGPR120 cells, fold more potent than Metabolex-36): about 100 fold; Insulin secretion in IVGTT (agonist alone) ([8]; exendin 9–39 experiment, agonist alone vs vehicle): significant increase; Acute insulin secretion in wt mice ([8]; female wild type mice, AZ13581837 30 min prior to iv glucose, vs vehicle, p<0.05): significantly increased; Glucose elimination in wt mice compared to compound treated GPR120 null mice ([8]; female wt mice, IVGTT, p<0.05): increased
